Experimental data: patent publication US7589104B2, “Tricyclic-bridged piperidinyline derivatives as §-opioid modulators” (Janssen Pharmaceutica NV, priority 2004, dated 2009)
Where two headings read alike, the source gives them in different places.

What was measured:
[1] = target: T1, delta opioid receptor (Rattus norvegicus, UniProt P33533); experiment: Rat Brain Delta Opioid Receptor Binding Assay
T1 construct: from tissue; host or cells: forebrain of male Wistar rats (Charles River)

[2] = target: T2, mu opioid receptor (Rattus norvegicus, UniProt P33535); experiment: Rat Brain Mu Opioid Receptor Binding Assay
T2 construct: Following incubation with the mu selective peptide ligand, ˜0.8 nM [^3H]DAMGO; from tissue; host or cells: forebrain of male Wistar rats (Charles River)

[3] = rat forebrain membranes, [3H]DAMGO, read-out: mu (Ki)

T1 sequence (P33533 whole entry): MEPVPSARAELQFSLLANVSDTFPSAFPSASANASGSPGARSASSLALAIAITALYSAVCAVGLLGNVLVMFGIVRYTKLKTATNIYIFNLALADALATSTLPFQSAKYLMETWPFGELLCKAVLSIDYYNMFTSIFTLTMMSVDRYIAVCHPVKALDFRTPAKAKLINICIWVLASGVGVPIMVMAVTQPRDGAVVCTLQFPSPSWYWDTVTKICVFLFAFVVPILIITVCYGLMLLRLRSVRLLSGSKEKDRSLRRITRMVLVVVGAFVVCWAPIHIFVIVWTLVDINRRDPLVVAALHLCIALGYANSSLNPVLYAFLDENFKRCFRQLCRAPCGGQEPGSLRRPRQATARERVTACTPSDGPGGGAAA
T2 sequence (P33535 whole entry): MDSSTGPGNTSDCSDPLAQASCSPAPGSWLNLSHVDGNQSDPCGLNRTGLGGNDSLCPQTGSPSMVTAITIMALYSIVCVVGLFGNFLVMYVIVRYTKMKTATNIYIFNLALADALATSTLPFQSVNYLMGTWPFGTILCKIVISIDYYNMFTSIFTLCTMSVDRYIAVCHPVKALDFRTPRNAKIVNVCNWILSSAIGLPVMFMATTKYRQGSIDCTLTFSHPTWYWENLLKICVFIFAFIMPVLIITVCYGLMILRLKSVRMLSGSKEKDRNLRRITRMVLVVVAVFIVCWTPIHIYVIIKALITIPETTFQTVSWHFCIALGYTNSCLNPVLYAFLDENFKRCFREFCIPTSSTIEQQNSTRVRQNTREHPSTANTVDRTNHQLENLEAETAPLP

SMILES: c1ccc2c(c1)Oc1cc(-c3ccsc3)ccc1C2C1CC2CCC(C1)N2 (stereo not drawn) [Compound 6b, 3-(3-Thiophen-3-yl-9H-xanthen-9-yl)-8-aza-bicyclo[3.2.1]octane]
- Ki [1]: 5800 nM
- Ki [2]: 83200 nM

SMILES: c1csc(CN2C3CCC2CC(C2c4ccccc4Oc4cc(-c5ccncc5)ccc42)C3)c1 (stereo not drawn) [Compound 21b, 3-(3-Pyridin-4-yl-9H-xanthen-9-yl)-8-thiophen-2-ylmethyl-8-aza-bicyclo[3.2.1]octane]
- Ki [1]: 98 nM
- Ki [2]: 930 nM

SMILES: c1ccc(CN2C3CCC2CC(C2c4ccccc4Oc4cc(-c5ccncc5)ccc42)C3)nc1 (stereo not drawn) [Compound 22b, 8-Pyridin-2-ylmethyl-3-(3-pyridin-4-yl-9H-xanthen-9-yl)-8-aza-bicyclo[3.2.1]octane]
- Ki [1]: 71.6 nM
- Ki [2]: 305 nM

SMILES: c1ccc(CN2C3CCC2CC(C2c4ccccc4Oc4cc(-c5ccncc5)ccc42)C3)cc1 (stereo not drawn) [Compound 23b, 8-Benzyl-3-(3-pyridin-4-yl-9H-xanthen-9-yl)-8-aza-bicyclo[3.2.1]octane]
- Ki [1]: 99.7 nM
- Ki [2]: 890 nM

SMILES: CCN(CC)C(=O)c1ccc2c(c1)Oc1c(C)cccc1C2C1CC2CCC(C1)N2 (stereo not drawn) [Compound 6h, 9-(8-Aza-bicyclo[3.2.1]oct-3-yl)-5-methyl-9H-xanthene-3-carboxylic acid diethylamide]
- Ki [1]: 73 nM
- Ki [2]: 4700 nM

SMILES: COc1cccc2c1Oc1cc(Br)ccc1C2C1CC2CCC(C1)N2 (stereo not drawn) [Compound 14k, 3-(3-Bromo-5-methoxy-9H-xanthen-9-yl)-8-aza-bicyclo[3.2.1]octane]
- Ki [1]: 2880 nM
- Ki [2]: 7380 nM

SMILES: CCN(CC)C(=O)c1ccc2c(c1)Oc1c(-c3ccccc3)cccc1C2C1CC2CCC(C1)N2 (stereo not drawn) [Compound 7d, 9-(8-Aza-bicyclo[3.2.1]oct-3-yl)-5-phenyl-9H-xanthene-3-carboxylic acid diethylamide]
- Ki [1]: 91 nM
- Ki [2, 3]: 8200 nM

SMILES: CC(=O)Nc1ccccc1-c1ccc2c(c1)Oc1ccccc1C2C1CC2CCC(C1)N2Cc1ccccc1 (stereo not drawn) [Compound 16b, N-{2-[9-(8-Benzyl-8-aza-bicyclo[3.2.1]oct-3-yl)-9H-xanthen-3-yl]-phenyl}-acetamide]
- Ki [1]: > 10000 nM
- Ki [2]: > 10000 nM

SMILES: c1ccc(CCN2C3CCC2CC(C2c4ccccc4Oc4cc(-c5cccnc5)ccc42)C3)cc1 (stereo not drawn) [Compound 12b, 8-Phenethyl-3-(3-pyridin-3-yl-9H-xanthen-9-yl)-8-aza-bicyclo[3.2.1]octane]
- Ki [1]: 794 nM
- Ki [2]: 293 nM

SMILES: CC(=O)Nc1ccccc1-c1ccc2c(c1)Oc1ccccc1C2C1CC2CCC(C1)N2 (stereo not drawn) [Compound 7b, N-{2-[9-(8-Aza-bicyclo[3.2.1]oct-3-yl)-9H-xanthen-3-yl]-phenyl}-acetamide]
- Ki [1]: 426 nM
- Ki [2]: 6380 nM

SMILES: c1ccc2c(c1)Oc1cc(-c3cnc4ccccc4c3)ccc1C2C1CC2CCC(C1)N2 (stereo not drawn) [Compound 8b, 3-[9-(8-Aza-bicyclo[3.2.1]oct-3-yl)-9H-xanthen-3-yl]-quinoline]
- Ki [1]: 4860 nM
- Ki [2]: 27700 nM

SMILES: c1ccc(CN2C3CCC2CC(C2c4ccccc4Oc4cc(-c5cccnc5)ccc42)C3)cc1 (stereo not drawn) [Compound 11b, 8-Benzyl-3-(3-pyridin-3-yl-9H-xanthen-9-yl)-8-aza-bicyclo[3.2.1]octane]
- Ki [1]: 70.4 nM
- Ki [2]: 955 nM

SMILES: COc1cccc2c1Oc1cc(-c3cccnc3)ccc1C2C1CC2CCC(C1)N2 (stereo not drawn) [Compound 7k, 3-(5-Methoxy-3-pyridin-3-yl-9H-xanthen-9-yl)-8-aza-bicyclo[3.2.1]octane]
- Ki ([1]; rat forebrain membranes, [3H]DPDPE or [3H]naltrindole, read-out: delta (Ki)): 655 nM
- Ki [2, 3]: 7740 nM

SMILES: CCN(CC)C(=O)c1ccc2c(c1)Oc1ccccc1C2C1CC2CCC(C1)N2Cc1ncc[nH]1 (stereo not drawn) [Compound 16a, 9-[8-(1H-Imidazol-2-ylmethyl)-8-aza-bicyclo[3.2.1]oct-3-yl]-9H-xanthene-3-carboxylic acid diethylamide]
- Ki [1]: 114 nM
- Ki [2]: 2000 nM

SMILES: O=C(c1ccc2c(c1)Oc1ccccc1C2C1CC2CCC(C1)N2)N1CCCC1 (stereo not drawn) [Compound 3g, [9-(8-Aza-bicyclo[3.2.1]oct-3-yl)-9H-xanthen-3-yl]-pyrrolidin-1-yl-methanone]
- Ki [1]: 831 nM
- Ki [2]: 7600 nM
